Test results as given in the supplement of paper PMC10627819.

Experiments:
S. aureus DSM 20231 [1] = assay: Bliss interaction score (quartile over a dose matrix) (fitness difference); higher = more antagonism (negative = synergy)
In short: (§1)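 At entry into stationary phase, OD595 was recorded and divided by the robust mean of the no-drug wells on that plate, with any value above 1 set to 1. This gives the fitness measure used throughout. Single-drug fitness was inferred from combination data, and the Bliss score, observed minus product-expected fitness, is shown as quartiles across technical, biological and donor/recipient replicates.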

S. aureus Newman [2] = assay: as above
In short: as §1

B. subtilis 168 = assay: as above
In short: as §1

S. pneumoniae D39V [3] = assay: as above
In short: as §1

S. aureus Newman [4] = assay: fitness (endpoint OD595 vs no drug) (fraction); higher = more growth
In short: (§2)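 Plates with 384 wells were inoculated at OD595 0.01 using 30 µl of TSB, LB Lennox or CY, or 55 µl for S. pneumoniae. Incubation was at 37 °C, with OD595 measured every 30 min for 14 h. Fitness is the stationary-phase transition optical density over the robust mean of no-drug control wells, after first-reading background subtraction; it is capped at 1.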

S. pneumoniae D39V [5] = assay: as above
In short: as §2

S. aureus DSM 20231 [6] = assay: as above; conditions: main component drawn
In short: as §2
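Wherever Bliss interaction score (quartile over a dose matrix) is given: first quartile when negative (synergy) and third quartile when positive (antagonism).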

CO/N=C(\C(=O)N[C@@H]1C(=O)N2C(C(=O)[O-])=C(C[N+]3(C)CCCC3)CS[C@H]12)c1csc(N)n1 [Cefepime] + CC(C1CCC(C(O1)OC2C(CC(C(C2O)OC3C(C(C(CO3)(C)O)NC)O)N)N)N)NC [Gentamicin]
main component drawn
Conditions	Bliss interaction score
B. subtilis 168	-0.134
S. aureus DSM 20231 [1]	0.0966
S. aureus Newman [2]	-0.0492
S. pneumoniae D39V [3]	0.0531

main component drawn
Conditions	fitness
S. aureus Newman [4], first compound 0.125 µg/mL, partner 0.375 µg/mL	0.954
S. aureus Newman [4], first compound 0.125 µg/mL, partner 0.5 µg/mL	0.871
S. aureus Newman [4], first compound 0.125 µg/mL, partner 0.75 µg/mL	0.94
S. aureus Newman [4], first compound 0.125 µg/mL, partner 1 µg/mL	≥ 1
S. aureus Newman [4], first compound 0.125 µg/mL, partner 1.5 µg/mL	0.916
S. aureus Newman [4], first compound 0.125 µg/mL, partner 2 µg/mL	≥ 1
S. aureus Newman [4], first compound 0.25 µg/mL, partner 0.375 µg/mL	0.857
S. aureus Newman [4], first compound 0.25 µg/mL, partner 0.5 µg/mL	0.816
S. aureus Newman [4], first compound 0.25 µg/mL, partner 0.75 µg/mL	0.837
S. aureus Newman [4], first compound 0.25 µg/mL, partner 1 µg/mL	0.906
S. aureus Newman [4], first compound 0.25 µg/mL, partner 1.5 µg/mL	0.787
S. aureus Newman [4], first compound 0.25 µg/mL, partner 2 µg/mL	0.966
S. aureus Newman [4], first compound 0.5 µg/mL, partner 0.375 µg/mL	0.799
S. aureus Newman [4], first compound 0.5 µg/mL, partner 0.5 µg/mL	0.757
S. aureus Newman [4], first compound 0.5 µg/mL, partner 0.75 µg/mL	0.818
S. aureus Newman [4], first compound 0.5 µg/mL, partner 1 µg/mL	0.804
S. aureus Newman [4], first compound 0.5 µg/mL, partner 1.5 µg/mL	0.744
S. aureus Newman [4], first compound 0.5 µg/mL, partner 2 µg/mL	0.87
S. pneumoniae D39V [5], first compound 0.007 µg/mL, partner 2 µg/mL	0.994
S. pneumoniae D39V [5], first compound 0.007 µg/mL, partner 4 µg/mL	0.996
S. pneumoniae D39V [5], first compound 0.007 µg/mL, partner 8 µg/mL	0.97
S. pneumoniae D39V [5], first compound 0.0078 µg/mL, partner 2 µg/mL	1
S. pneumoniae D39V [5], first compound 0.0078 µg/mL, partner 4 µg/mL	≥ 1
S. pneumoniae D39V [5], first compound 0.0078 µg/mL, partner 8 µg/mL	0.972
S. pneumoniae D39V [5], first compound 0.014 µg/mL, partner 2 µg/mL	≥ 1
S. pneumoniae D39V [5], first compound 0.014 µg/mL, partner 4 µg/mL	0.99
S. pneumoniae D39V [5], first compound 0.014 µg/mL, partner 8 µg/mL	≥ 1
S. pneumoniae D39V [5], first compound 0.0155 µg/mL, partner 2 µg/mL	0.964
S. pneumoniae D39V [5], first compound 0.0155 µg/mL, partner 4 µg/mL	0.974
S. pneumoniae D39V [5], first compound 0.0155 µg/mL, partner 8 µg/mL	0.971
S. pneumoniae D39V [5], first compound 0.028 µg/mL, partner 2 µg/mL	0.926
S. pneumoniae D39V [5], first compound 0.028 µg/mL, partner 4 µg/mL	0.932
S. pneumoniae D39V [5], first compound 0.028 µg/mL, partner 8 µg/mL	0.885
S. pneumoniae D39V [5], first compound 0.031 µg/mL, partner 2 µg/mL	0.493
S. pneumoniae D39V [5], first compound 0.031 µg/mL, partner 8 µg/mL	0.439

CO/N=C(\C(=O)N[C@@H]1C(=O)N2C(C(=O)[O-])=C(C[N+]3(C)CCCC3)CS[C@H]12)c1csc(N)n1 [Cefepime] + CCCCCCCCCC(=O)N[C@@H]1[C@H]([C@@H]([C@H](O[C@H]1OC2=C3C=C4C=C2OC5=C(C=C(C=C5)[C@H]([C@H]6C(=O)N[C@@H](C7=C(C(=CC(=C7)O)OC8[C@H]([C@H]([C@@H]([C@H](O8)CO)O)O)O)C9=C(C=CC(=C9)[C@H](C(=O)N6)NC(=O)[C@@H]4NC(=O)[C@@H]1C2=CC(=CC(=C2)OC2=C(C=CC(=C2)[C@H](C(=O)N[C@H](CC2=CC(=C(O3)C=C2)Cl)C(=O)N1)N)O)O)O)C(=O)O)O[C@H]1[C@@H]([C@H]([C@@H]([C@H](O1)CO)O)O)NC(=O)C)Cl)CO)O)O [Teicoplanin]
main component drawn
Conditions	Bliss interaction score
B. subtilis 168	-0.172
S. aureus DSM 20231 [1]	-0.0986
S. aureus Newman [2]	-0.0867
S. pneumoniae D39V [3]	0.0453

fitness, S. aureus DSM 20231 [6]
Conditions	first compound 0.125 µg/mL	first compound 0.25 µg/mL	first compound 0.5 µg/mL
partner 0.1562 µg/mL	0.9	0.88	0.864
partner 0.3125 µg/mL	0.959	0.929	0.919
partner 0.625 µg/mL	0.984	0.87	0.842

fitness, S. aureus Newman [4], main component drawn
Conditions	first compound 0.125 µg/mL	first compound 0.25 µg/mL	first compound 0.5 µg/mL
partner 0.1562 µg/mL	0.892	0.827	0.713
partner 0.3125 µg/mL	0.897	0.799	0.73
partner 0.625 µg/mL	0.891	0.766	0.646

fitness, S. aureus Newman [4], one replicate, main component drawn
Conditions	first compound 0.125 µg/mL	first compound 0.25 µg/mL	first compound 0.5 µg/mL
partner 0.62 µg/mL	0.712	0.61	0.625
partner 1.24 µg/mL	0.7	0.634	0.576
partner 2.48 µg/mL	0.459	0.173	0.203

CO/N=C(\C(=O)N[C@@H]1C(=O)N2C(C(=O)[O-])=C(C[N+]3(C)CCCC3)CS[C@H]12)c1csc(N)n1 [Cefepime] + CN(C)c1cc(NC(=O)CNC(C)(C)C)c(O)c2c1C[C@H]1C[C@H]3[C@H](N(C)C)C(O)=C(C(N)=O)C(=O)[C@@]3(O)C(O)=C1C2=O [Tigecycline]
Conditions	Bliss interaction score
B. subtilis 168	0.115
S. aureus DSM 20231 [1]	0.0417
S. aureus Newman [2]	-0.0743
S. pneumoniae D39V [3]	0.0368

Conditions	fitness
S. aureus Newman [4], first compound 0.125 µg/mL, partner 0.039 µg/mL	0.905
S. aureus Newman [4], first compound 0.125 µg/mL, partner 0.078 µg/mL	0.92
S. aureus Newman [4], first compound 0.125 µg/mL, partner 0.156 µg/mL	0.882
S. aureus Newman [4], first compound 0.25 µg/mL, partner 0.039 µg/mL	0.837
S. aureus Newman [4], first compound 0.25 µg/mL, partner 0.078 µg/mL	0.838
S. aureus Newman [4], first compound 0.25 µg/mL, partner 0.156 µg/mL	0.862
S. aureus Newman [4], first compound 0.5 µg/mL, partner 0.039 µg/mL	0.72
S. aureus Newman [4], first compound 0.5 µg/mL, partner 0.078 µg/mL	0.763
S. aureus Newman [4], first compound 0.5 µg/mL, partner 0.156 µg/mL	0.798
S. pneumoniae D39V [5], first compound 0.007 µg/mL, partner 0.325 µg/mL	0.996
S. pneumoniae D39V [5], first compound 0.007 µg/mL, partner 0.65 µg/mL	0.964
S. pneumoniae D39V [5], first compound 0.007 µg/mL, partner 1.3 µg/mL	0.955
S. pneumoniae D39V [5], first compound 0.0078 µg/mL, partner 0.65 µg/mL	0.963
S. pneumoniae D39V [5], first compound 0.0078 µg/mL, partner 1.3 µg/mL	0.943
S. pneumoniae D39V [5], first compound 0.0078 µg/mL, partner 2.6 µg/mL	0.918
S. pneumoniae D39V [5], first compound 0.014 µg/mL, partner 0.325 µg/mL	≥ 1
S. pneumoniae D39V [5], first compound 0.014 µg/mL, partner 0.65 µg/mL	0.983
S. pneumoniae D39V [5], first compound 0.014 µg/mL, partner 1.3 µg/mL	0.99
S. pneumoniae D39V [5], first compound 0.0155 µg/mL, partner 0.65 µg/mL	0.91
S. pneumoniae D39V [5], first compound 0.0155 µg/mL, partner 1.3 µg/mL	0.935
S. pneumoniae D39V [5], first compound 0.0155 µg/mL, partner 2.6 µg/mL	0.883
S. pneumoniae D39V [5], first compound 0.028 µg/mL, partner 0.325 µg/mL	0.951
S. pneumoniae D39V [5], first compound 0.028 µg/mL, partner 0.65 µg/mL	0.877
S. pneumoniae D39V [5], first compound 0.028 µg/mL, partner 1.3 µg/mL	0.865
S. pneumoniae D39V [5], first compound 0.031 µg/mL, partner 0.65 µg/mL	0.543
S. pneumoniae D39V [5], first compound 0.031 µg/mL, partner 1.3 µg/mL	0.698
S. pneumoniae D39V [5], first compound 0.031 µg/mL, partner 2.6 µg/mL	0.684

CO/N=C(\C(=O)N[C@@H]1C(=O)N2C(C(=O)[O-])=C(C[N+]3(C)CCCC3)CS[C@H]12)c1csc(N)n1 [Cefepime] + CN[C@@H]1[C@H](O[C@H]2[C@H](O[C@H]3[C@H](O)[C@@H](O)[C@H](N=C(N)N)[C@@H](O)[C@@H]3N=C(N)N)O[C@@H](C)[C@]2(O)C=O)O[C@@H](CO)[C@H](O)[C@H]1O [Streptomycin]
Conditions	Bliss interaction score
B. subtilis 168	-0.159
S. aureus DSM 20231 [1]	0.0906
S. aureus Newman [2]	0.0474
S. pneumoniae D39V [3]	0.0613

fitness
Conditions	partner 1 µg/mL	partner 2 µg/mL	partner 4 µg/mL	partner 8 µg/mL
S. aureus Newman [4], first compound 0.125 µg/mL	0.939	0.882	–	–
S. aureus Newman [4], first compound 0.25 µg/mL	0.865	0.848	–	–
S. aureus Newman [4], first compound 0.5 µg/mL	0.765	0.773	–	–
S. pneumoniae D39V [5], first compound 0.007 µg/mL	–	0.949	0.945	0.965
S. pneumoniae D39V [5], first compound 0.0078 µg/mL	–	–	≥ 1	0.903
S. pneumoniae D39V [5], first compound 0.014 µg/mL	–	0.971	0.954	0.984
S. pneumoniae D39V [5], first compound 0.0155 µg/mL	–	–	0.984	0.889
S. pneumoniae D39V [5], first compound 0.028 µg/mL	–	0.864	0.874	0.912
S. pneumoniae D39V [5], first compound 0.031 µg/mL	–	–	0.475	0.538

fitness, S. pneumoniae D39V [5], one replicate
Conditions	first compound 0.0078 µg/mL	first compound 0.0155 µg/mL	first compound 0.031 µg/mL
partner 2 µg/mL	≥ 1	0.977	0.468
partner 16 µg/mL	0.883	0.863	0.481
